According to patent US7314861B2, “Melanin-concentrating hormone analogs” (priority 2001, dated 2008):
Where a SMILES comes first, the peptide text is derived from it. Bridges are numbered along the chain shown (N, C = ends).

Key:
[1] = biological target: human MCH-R2 (Homo sapiens, UniProt Q969V1); assay: Aequorin bioluminescence functional assay, MCH-2R; conditions: Table 3; % Activation at 10 μM, aequorin functional assay
Description: (§1) The aequorin bioluminescence assay can be used to measure the activity of G protein-coupled receptors that couple through the Gα protein subunit family consisting of Gq and G11. Such coupling leads to phospholipase C activation, intracellular calcium mobilization and protein kinase C activation.
(§2) Following approximately 40 hours of expression the apo-aequorin in the cells was charged for 4 hours with coelenterazine (10 μM) under reducing conditions (300 μM reduced glutathione) in ECB buffer (140 mM NaCl, 20 mM KCl, 20 mM HEPES-NaOH [pH=7.4], 5 mM glucose, 1 mM MgCl2, 1 mM CaCl2, 0.1 mg/ml bovine serum albumin).
(§3) The cells were harvested, washed once in ECB medium and resuspended to 500,000 cells/ml. 100 μl of cell suspension (corresponding to 5×10^4 cells) was then injected into the test plate containing MCH or MCH analogs, and the integrated light emission was recorded over 30 seconds, in 0.5 second units. 20 μL of lysis buffer (0.1% final Triton X-100 concentration) was then injected and the integrated light emission recorded over 10 seconds, in 0.5 second units. The “fractional response” values for each well were calculated by taking the ratio of the integrated response to the initial challenge to the total integrated luminescence including the Triton X-100 lysis response.

[2] = biological target: human MCH-2R (Homo sapiens, UniProt Q969V1); assay: Radiolabeled MCH-R binding assay (SPA based), MCH-2R; conditions: MCH-2R IC50 (nM), Table 3
Description: (§4) Cell membranes were prepared on ice. Each T-75 flask was rinsed twice with 10 ml of Enzyme-free Cell Dissociation Buffer (Specialty Media, Lavallette, N.J.), and the cell monolayer was detached in an additional 10 ml of Enzyme-free Cell Dissociation Buffer by incubation at room temperature for 10 minutes. Dissociated cells were centrifuged (500×g for 10 minutes at 4° C.), resuspended in 5 ml homogenization buffer (10 mM Tris-HCl, pH 7.4, 0.01 mM Pefabloc, 10 μM phosphoramidon, 40 μg/ml bacitracin) and then homogenized using a glass homogenizer (10-15 strokes). The homogenate was centrifuged for 10 minutes (1,000×g at 4° C.). The resulting supernatant was then centrifuged at 38,700×g for 15 minutes at 4° C. Pelleted membranes were resuspended (passed through 25 gauge needle 5 times), snap-frozen on liquid nitrogen, and stored at −80° C. until use.
(§5) For the SPA-based assay, WGA-PVT beads (NEN Life Sciences Products) were resuspended in Dulbecco's PBS with calcium and magnesium (500 mg beads in 4 ml PBS). […] The suspension was mixed gently for 20 minutes, 12.3 ml of assay buffer and protease inhibitors were added (final concentration given): 2 μg/ml leupeptin, 10 μM phosphoramidon, 40 μg/ml bacitracin, 5 μg/ml aprotinin, 0.1 mM Pefabloc.
(§6) Coated beads were kept on ice until use. […] Binding reactions were allowed to proceed at room temperature for 3 hours. Quantitation was performed by scintillation counting (TopCount device).

[3] = biological target: T1, human MCH-1R (Homo sapiens, UniProt Q99705); assay: Radiolabeled MCH-R binding assay (SPA based), MCH-1R
Description: as §4, §5, §6

[4] = biological target: T1, human MCH-1R; assay: Aequorin bioluminescence functional assay, MCH-1R; conditions: Table 3; % Activation at 10 μM, aequorin functional assay
Description: as §1, §2, §3

Sequence of human MCH-2R (Q969V1 whole entry): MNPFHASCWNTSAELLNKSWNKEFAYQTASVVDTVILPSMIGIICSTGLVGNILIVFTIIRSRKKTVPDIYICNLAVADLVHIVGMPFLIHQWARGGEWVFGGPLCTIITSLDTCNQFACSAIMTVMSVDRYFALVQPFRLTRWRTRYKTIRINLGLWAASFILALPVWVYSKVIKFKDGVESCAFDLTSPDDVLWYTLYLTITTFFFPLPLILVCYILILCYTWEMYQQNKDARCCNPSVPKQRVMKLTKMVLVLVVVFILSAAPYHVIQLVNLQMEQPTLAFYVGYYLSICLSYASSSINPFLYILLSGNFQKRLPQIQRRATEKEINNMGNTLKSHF
Sequence of human MCH-R2 (Q969V1 whole entry): as above
T1 sequence (Q99705 whole entry): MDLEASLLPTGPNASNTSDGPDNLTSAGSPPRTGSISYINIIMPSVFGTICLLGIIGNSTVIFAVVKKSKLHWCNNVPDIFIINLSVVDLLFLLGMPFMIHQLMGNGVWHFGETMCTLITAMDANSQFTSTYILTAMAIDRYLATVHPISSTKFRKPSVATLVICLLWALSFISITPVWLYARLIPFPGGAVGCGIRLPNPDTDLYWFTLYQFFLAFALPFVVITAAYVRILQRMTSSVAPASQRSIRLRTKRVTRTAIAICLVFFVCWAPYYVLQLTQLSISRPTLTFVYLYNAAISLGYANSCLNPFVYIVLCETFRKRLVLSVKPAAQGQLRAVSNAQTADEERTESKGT

Structure (SMILES) | MCH-2R Activation % [1] [%] | IC50 [2] [nM] | IC50 [3] [nM] | MCH-1R Activation % [4] [%]
CSCC[C@H](NC(=O)[C@H](CC(=O)O)NC(=O)[C@H](Cc1ccccc1)NC(=O)[C@@H](N)CC(=O)O)C(=O)N[C@@H](C)C(=O)N[C@@H](CCCNC(=N)N)C(=O)N[C@H]1CSSC[C@@H](C(=O)N[C@@H](Cc2c[nH]c3ccccc23)C(=O)N[C@@H](CCC(N)=O)C(=O)N[C@H](C(=O)O)C(C)C)NC(=O)[C@@H]2CCCN2C(=O)[C@H](CCCNC(=N)N)NC(=O)[C@H](Cc2ccc(O)cc2)NC(=O)[C@H](C(C)C)NC(=O)[C@H](CCCNC(=N)N)NC(=O)CNC(=O)[C@H](CC(C)C)NC(=O)[C@H](CCSC)NC1=O [compound 45] (H-DFDMARCMLGRVYRPCWQV-OH; disulfide 7-16; N-terminus and C-terminus assumed) | 94 | 2 | 0.3 | 96
CSCC[C@@H]1NC(=O)[C@@H](NC(=O)[C@H](CCCNC(=N)N)NC(=O)[C@H](CC(C)C)NC(=O)[C@H](CCSC)NC(=O)[C@H](CC(=O)O)NC(=O)[C@H](Cc2ccccc2)NC(=O)[C@@H](N)CC(=O)O)CSSC[C@@H](C(=O)N[C@@H](Cc2c[nH]c3ccccc23)C(=O)N[C@@H](CCC(N)=O)C(=O)N[C@H](C(=O)O)C(C)C)NC(=O)[C@@H]2CCCN2C(=O)[C@H](CCCNC(=N)N)NC(=O)[C@H](Cc2ccc(O)cc2)NC(=O)[C@H](C(C)C)NC(=O)[C@H](CCCNC(=N)N)NC(=O)CNC(=O)[C@H](C)NC1=O [compound 48] (H-DFDMLRCMAGRVYRPCWQV-OH; disulfide 7-16; N-terminus and C-terminus assumed) | 92 | 9.5 | 0.9 | 96
CSCC[C@@H]1NC(=O)[C@@H](NC(=O)[C@H](CCCNC(=N)N)NC(=O)[C@H](CC(C)C)NC(=O)[C@H](CCSC)NC(=O)[C@H](CC(=O)O)NC(=O)[C@H](Cc2ccccc2)NC(=O)[C@@H](N)CC(=O)O)CSSC[C@@H](C(=O)N[C@@H](Cc2c[nH]c3ccccc23)C(=O)N[C@@H](CCC(N)=O)C(=O)N[C@H](C(=O)O)C(C)C)NC(=O)[C@@H]2CCCN2C(=O)[C@H](CCCNC(=N)N)NC(=O)[C@H](Cc2ccc(O)cc2)NC(=O)[C@H](C)NC(=O)[C@H](CCCNC(=N)N)NC(=O)CNC(=O)[C@H](CC(C)C)NC1=O [compound 50] (H-DFDMLRCMLGRAYRPCWQV-OH; disulfide 7-16; N-terminus and C-terminus assumed) | 98 | 25 | 0.9 | 95
